Experimental data as given in PMC4076079, “Selective inhibitors of a PAF biosynthetic enzyme lysophosphatidylcholine acyltransferase 2” (Journal of Lipid Research, 2014).

Assays:
[1] = target: T1, mLPCAT2 (Mus musculus, UniProt Q8BYI6); assay: acyltransferase activity assay, 16:0/20:4 alkyl-PC product; assay type: biochemical; conditions: 20 μM compound; microsomal fractions of nonstimulated CHO-S-PAFR cells; n = 3, mean ± SEM
T1 construct: expressed in transfected cells; host or cells: CHO-S-PAFR cells, microsomal fraction, with or without mcPAF stimulation
T1 sequence (Q8BYI6 1-544): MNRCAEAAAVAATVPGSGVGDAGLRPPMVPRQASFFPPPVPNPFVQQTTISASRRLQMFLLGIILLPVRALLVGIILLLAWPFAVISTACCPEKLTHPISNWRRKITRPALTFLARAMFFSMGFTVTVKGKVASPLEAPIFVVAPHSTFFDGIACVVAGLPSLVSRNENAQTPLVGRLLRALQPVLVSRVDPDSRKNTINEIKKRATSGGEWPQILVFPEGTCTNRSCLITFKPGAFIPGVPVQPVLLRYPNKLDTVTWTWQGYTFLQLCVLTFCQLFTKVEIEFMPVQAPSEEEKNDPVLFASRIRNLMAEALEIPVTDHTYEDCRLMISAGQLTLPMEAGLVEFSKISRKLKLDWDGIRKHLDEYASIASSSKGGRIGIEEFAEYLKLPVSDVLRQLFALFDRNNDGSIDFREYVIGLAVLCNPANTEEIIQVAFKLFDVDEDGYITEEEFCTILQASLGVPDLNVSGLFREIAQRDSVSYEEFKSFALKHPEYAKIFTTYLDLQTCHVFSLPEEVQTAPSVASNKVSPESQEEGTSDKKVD
Experimental: (§1) Microsomal protein fractions (0.5 μg) supplemented with the indicated compound concentrations were added to the reaction mixture containing 100 mM Tris-HCl (pH 7.4), 1 μM CaCl2, 0.015% Tween-20, and two substrates. For acetyltransferase activity, the substrates were 1 mM acetyl-CoA and 5 μM d4-lyso-PAF; for the acyltransferase activity of LPCAT1 or LPCAT2, the substrates were, respectively, palmitoyl-CoA and d31-16:0 LPC or arachidonoyl-CoA and d4-lyso-PAF (all 5 μM). Each lysophospholipid contained fatty acid at the sn-1 position. After incubation at 37°C for 5 min, the reactions were stopped by adding 300 μl methanol containing 17:0 LPC or 14:0/14:0 PC as an internal standard. Deuterium-labeled products were analyzed by LC-MS/MS (Waters, Milford, MA and Thermo Scientific, Waltham, MA). […]
(§2) arachidonoyl-CoA, 5 µM; palmitoyl-CoA, 5 µM; d4-lyso-PAF, 5 µM; and d31-LPC, 5 µM. […]
(§3) deuterium-labeled products were measured by LC-MS/MS. […]
(§4) Step 7 screening: species-specific differences
(§5) To evaluate the effects on the activity of mouse or human LPCAT1 and LPCAT2, each microsomal fraction was obtained using CHO-S-PAFR cells with or without mcPAF (200 nM) stimulation for 5 min. Acetyltransferase and acyltransferase assays were performed with 20 µM of each compound. Percentage inhibition was calculated in each

[2] = target: T2, mLPCAT1 (Mus musculus, UniProt Q3TFD2); assay: lyso-PAFAT (acetyltransferase) activity assay, PAF product; assay type: biochemical; conditions: 20 μM compound; microsomal fractions of nonstimulated CHO-S-PAFR cells; n = 3, mean ± SEM
T2 construct: expressed in transfected cells; host or cells: CHO-S-PAFR cells, microsomal fraction
T2 sequence (Q3TFD2 1-534): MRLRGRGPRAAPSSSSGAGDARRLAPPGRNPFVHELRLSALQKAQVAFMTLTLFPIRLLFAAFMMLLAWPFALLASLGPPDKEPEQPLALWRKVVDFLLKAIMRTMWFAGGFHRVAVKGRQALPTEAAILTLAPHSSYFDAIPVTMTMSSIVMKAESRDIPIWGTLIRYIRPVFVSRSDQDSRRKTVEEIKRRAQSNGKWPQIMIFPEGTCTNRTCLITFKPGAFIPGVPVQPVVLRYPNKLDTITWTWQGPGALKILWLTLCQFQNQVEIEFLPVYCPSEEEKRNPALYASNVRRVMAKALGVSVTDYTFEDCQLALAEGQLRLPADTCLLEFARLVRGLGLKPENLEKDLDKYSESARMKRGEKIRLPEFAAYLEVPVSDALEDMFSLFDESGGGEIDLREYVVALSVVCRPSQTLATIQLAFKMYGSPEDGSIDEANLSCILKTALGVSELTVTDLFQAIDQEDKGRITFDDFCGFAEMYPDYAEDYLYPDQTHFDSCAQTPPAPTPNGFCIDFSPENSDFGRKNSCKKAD
Experimental: as §1, §2, §3, §4, §5

[3] = target: T1, mLPCAT2; assay: as above; assay type: biochemical; conditions: 20 μM compound; microsomal fractions of nonstimulated CHO-S-PAFR cells; n = 3, mean ± SEM
Experimental: as §1, §2, §3, §4, §5

[4] = cell viability assay (WST-8); assay type: cell-based, mouse; conditions: mouse, RAW-mLPCAT2 cells (RAW264.7 cells transfected with mLPCAT2), 36 h treatment, WST-8, data not shown, read-out: cytotoxicity IC50 (cell viability)
Experimental: Cell viability was measured using a modified MTT [3-(4,5-dimethylthiazol-2-yl)-2,5-diphenyltetrazolium bromide] dye reduction assay using WST-8 [2-(2-methoxy-4-nitrophenyl)-3-(4-nitrophenyl)-5-(2,4-disulfophenyl)-2H-tetrazolium, monosodium salt; Dojindo Molecular Technologies, Inc., Kumamoto, Japan] according to the manufacturer’s instructions. […] or RAW-mLPCAT2 cells were seeded in 96-well plates (1 × 10^4 cells/well) for 8 h and then treated with a compound for 36 h. WST-8 was added for another 2 h and the 450 nm absorbance was measured using a microplate reader (Bio-Rad). Cell viability was expressed as a percentage of vehicle-treated control values. To observe the effects of the incubation time on cell viability, 0.4 × 10^4 RAW-mLPCAT2 cells were treated with compounds for 1 or 6 h before the WST-8 assay.
Step 8 screening: cell viability assay
Wild-type RAW264.7 cells and RAW264.7 cells transfected with mLPCAT2 or control plasmid were used. Cells were cultured for 36 h with 0, 0.06, 0.2, 0.6, 2, 6, and 20 µM of compounds in 96-well plates and assayed for viability with WST-8. […]
The data were normalized to each positive control (100% activation). Percentage inhibition or IC50 were determined in each screening step. To assess screening quality, the percentage coefficient of variance and the Z’ factor was calculated for each plate or each assay as described previously (2).

Row | percentage inhibition, product 16:0/20:4 Alkyl-PC, mLPCAT2 [1] [percentage] | percentage inhibition, product PAF, mLPCAT1 [2] [percentage] | percentage inhibition, product PAF, mLPCAT2 [3] [percentage] | Structure (SMILES) | IC50 at 36 h [4] [µM]
1 | 82.4 ± 5.7 | 33.6 ± 6.1 | 84.1 ± 6.4 | CC(C)OC(=O)c1ccc(N2C(=O)C(Cl)=C(Nc3ccccc3O)C2=O)cc1 [TSI-07] | > 20
2 | 83.0 ± 3.5 | 89.3 ± 1.1 | 98.9 ± 0.3 | CCCCOC(=O)c1ccc(N2C(=O)C(Cl)=C(Cl)C2=O)cc1 [TSI-11, butyl 4-(3,4-dichloro-2,5-dioxopyrrol-1-yl)benzoate] | > 20
3 | 86.7 ± 5.2 | 89.6 ± 1.1 | 99.1 ± 0.2 | CCCOC(=O)c1ccc(N2C(=O)C(Cl)=C(Cl)C2=O)cc1 [TSI-10] | > 20

Row | Structure (SMILES) | percentage inhibition, product 16:0/20:4 Alkyl-PC, mLPCAT2 [1] [percentage] | percentage inhibition, product PAF, mLPCAT1 [2] [percentage] | percentage inhibition, product PAF, mLPCAT2 [3] [percentage] | IC50 at 36 h [4] [µM]
4 | CC(C)OC(=O)c1ccc(N2C(=O)C(Cl)=C(Cl)C2=O)cc1 [TSI-01, propan-2-yl 4-(3,4-dichloro-2,5-dioxopyrrol-1-yl)benzoate] | 95.5 ± 1.8 | 89.2 ± 1.8 | 99.2 ± 0.2 | > 20
